From the NIST ThermoML archive (doi:10.1016/j.tca.2016.04.001)

Experiments:
[1] = 87 kPa, Liquid, Vibrating tube method
[2] = xn = mol fraction of the nth substance listed; details: 87 kPa, Liquid, Vibrating tube method

OC(CCl)CCl [1,3-dichloro-2-propanol]
[1]
Details | mass density [kg/m3]
293.15 K | 1362.66
298.15 K | 1356.74
303.15 K | 1350.72
308.15 K | 1344.71
313.15 K | 1338.65

OC(CCl)CCl [1,3-dichloro-2-propanol] + CC(=O)OC(C)(C)C
mass density [kg/m3], [2]
Details | 293.15 K | 298.15 K | 303.15 K | 308.15 K | 313.15 K
x1 = 0.0496 | 885.18 | 879.67 | 874.08 | 868.47 | 862.83
x1 = 0.0948 | 902.23 | 896.7 | 891.14 | 885.54 | 879.9
x1 = 0.2007 | 943.76 | 938.26 | 932.7 | 927.12 | 921.51
x1 = 0.3003 | 985.2 | 979.7 | 974.18 | 968.6 | 963
x1 = 0.4001 | 1029.14 | 1023.63 | 1018.09 | 1012.51 | 1006.91
x1 = 0.4991 | 1075.36 | 1069.84 | 1064.27 | 1058.68 | 1053.06
x1 = 0.6003 | 1125.61 | 1120.05 | 1114.46 | 1108.83 | 1103.17
x1 = 0.7009 | 1179.16 | 1173.55 | 1167.9 | 1162.21 | 1156.49
x1 = 0.8013 | 1236.36 | 1230.68 | 1224.95 | 1219.17 | 1213.37
x1 = 0.9032 | 1298.89 | 1293.07 | 1287.22 | 1281.34 | 1275.42
x1 = 0.9507 | 1329.66 | 1323.78 | 1317.85 | 1311.9 | 1305.91
x1 = 1 | 1362.66 | 1356.74 | 1350.72 | 1344.71 | 1338.65

OC(CCl)CCl [1,3-dichloro-2-propanol] + CCOC(C)=O
mass density [kg/m3], [2]
Details | 293.15 K | 298.15 K | 303.15 K | 308.15 K | 313.15 K
x1 = 0.0442 | 921.07 | 915.01 | 909.02 | 902.88 | 896.68
x1 = 0.0967 | 945.13 | 939.12 | 933.16 | 927.05 | 921.2
x1 = 0.1971 | 991 | 985 | 979.1 | 972.97 | 967.2
x1 = 0.3019 | 1039.05 | 1033.15 | 1027.3 | 1021.22 | 1015.41
x1 = 0.3939 | 1081.4 | 1075.55 | 1069.64 | 1063.7 | 1057.83
x1 = 0.4995 | 1130.18 | 1124.35 | 1118.48 | 1112.58 | 1106.65
x1 = 0.6006 | 1176.92 | 1171.1 | 1165.25 | 1159.37 | 1153.45
x1 = 0.6993 | 1222.62 | 1216.83 | 1210.95 | 1205.06 | 1199.14
x1 = 0.8006 | 1269.78 | 1263.96 | 1258.07 | 1252.15 | 1246.2
x1 = 0.9011 | 1316.79 | 1310.89 | 1304.97 | 1299 | 1293.1
x1 = 0.953 | 1340.9 | 1334.99 | 1329.01 | 1323.02 | 1316.98
x1 = 1 | 1362.66 | 1356.74 | 1350.72 | 1344.71 | 1338.65

OCc1ccccc1 [benzenemethanol]
[1]
Details | mass density [kg/m3]
293.15 K | 1045.21
298.15 K | 1041.38
303.15 K | 1037.5
308.15 K | 1033.63
313.15 K | 1029.71

OCc1ccccc1 [benzenemethanol] + C=COC(C)=O
[2], x1 = 1
Details | mass density [kg/m3]
293.15 K | 1045.21
298.15 K | 1041.38
303.15 K | 1037.5
308.15 K | 1033.63
313.15 K | 1029.71
